Experimental data published in ChEMBL document CHEMBL1201862, “PubChem BioAssay data set” (2004).
Active and inactive are the calls of the source.

How the values were obtained:
[1] = target: Induced myeloid leukemia cell differentiation protein Mcl-1 (Homo sapiens, UniProt Q07820); assay type: functional
[2] = target: T1, RNA-binding protein pos-1 (Caenorhabditis elegans, UniProt G5EF15); experiment: disruptors of C. elegans POS-1 RNA interaction – biochemical, fluorescence polarization, dose response (AID 1964);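 further: purified POS-1 fused to maltose binding protein made in E. coli; potency of compounds blocking POS-1 binding to fluorescent RNA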
T1 sequence (G5EF15 whole entry): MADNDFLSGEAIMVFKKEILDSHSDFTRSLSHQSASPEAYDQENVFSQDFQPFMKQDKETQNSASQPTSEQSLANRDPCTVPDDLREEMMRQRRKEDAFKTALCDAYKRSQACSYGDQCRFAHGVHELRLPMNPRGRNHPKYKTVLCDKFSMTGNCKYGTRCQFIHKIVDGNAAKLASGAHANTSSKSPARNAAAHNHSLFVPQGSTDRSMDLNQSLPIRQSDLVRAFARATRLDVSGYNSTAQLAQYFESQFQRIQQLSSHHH

[3] = target: T2, Zinc finger protein mex-5 (Caenorhabditis elegans, UniProt Q9XUB2); experiment: potency of MEX-5 RNA-binding blockers – biochemical, C. elegans, fluorescence polarization, dose response (AID 1960)
T2 sequence (Q9XUB2 whole entry): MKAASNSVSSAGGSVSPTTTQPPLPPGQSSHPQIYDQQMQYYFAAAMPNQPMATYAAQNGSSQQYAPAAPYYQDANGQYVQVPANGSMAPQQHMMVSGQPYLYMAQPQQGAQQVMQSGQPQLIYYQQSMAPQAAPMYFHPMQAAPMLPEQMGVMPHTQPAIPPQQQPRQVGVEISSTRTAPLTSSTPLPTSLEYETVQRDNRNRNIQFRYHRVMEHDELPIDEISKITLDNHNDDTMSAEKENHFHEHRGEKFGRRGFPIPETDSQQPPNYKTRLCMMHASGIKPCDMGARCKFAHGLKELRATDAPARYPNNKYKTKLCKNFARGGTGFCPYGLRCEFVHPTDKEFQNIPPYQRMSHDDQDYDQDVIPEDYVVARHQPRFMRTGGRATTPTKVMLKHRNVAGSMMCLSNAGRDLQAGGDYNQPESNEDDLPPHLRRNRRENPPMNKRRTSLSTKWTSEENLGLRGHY

[4] = microbe, parasite or virus in culture; assay type: functional; details: Mycobacterium tuberculosis
[5] = intracellular Trypanosoma cruzi inhibitors in host cells – cell-based, plate reader, cherry-pick samples, set 3, dose response (AID 651818); assay type: functional;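 further: compounds incubated with infected cells for about four days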
[6] = blockers of HIV-1 envelope-mediated cell-cell fusion – cherry-pick, dose response (AID 652057); assay type: functional, cell-based
[7] = off-target signal loss in HeLa-CEM21 co-culture – HeLa F-luc CTL cells, cherry-picked, counter-screen for HIV-1 Env fusion inhibitor project, dose response (AID 652040); assay type: functional, cell-based;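 further: potency for signal decrease marking cytotoxic or nonspecific inhibition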
[8] = HIV-1 AD8 envelope cell-cell fusion blockers – cherry-pick, dose response (AID 652062); assay type: functional, cell-based;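 further: luciferase signal from cell-cell fusion driven by HIV-1 clade B AD8 Env; potency is for inhibitors of fusion seen as a drop in luminescence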
[9] = blockers of HIV-1 ZM109 envelope-driven cell-cell fusion – HeLa effector, CEM target cells, luciferase, cherry-pick, dose response (AID 652058); assay type: functional, cell-based;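 further: luciferase signal from HIV-1 Env mediated cell-cell fusion of effector and target cells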
H9c2 = experiment: cells; assay type: functional, cell-based; details: Rattus norvegicus, H9c2, Myocardium;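 further: confirmatory concentration-response retest of ultra-high-throughput screening hits for modulation of myocardial damage; cell death induced by hydrogen peroxide oxidative stress; compound pretreatment for 60 min then peroxide exposure for 2 h; potency is for protecting the cells against peroxide damage rather than for killing them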
[10] = Luminescence Cell-Based Dose Retest to Confirm Inhibitors of Cancer Stem Cells. [Related pubchem assays (depositor defined):AID2717, AID2721]; assay type: functional; details: Homo sapiens
[11] = target: Heat shock protein HSP 90-alpha (Homo sapiens, UniProt P07900); assay type: functional, organism-based
[12] = target: T3, Replicative DNA helicase DnaB (Mycobacterium tuberculosis, UniProt P9WMR3); experiment: DnaB intein splicing inhibitors, dose response, biochemical, cell-free fluorescence (AID 449749); assay type: functional
T3 sequence (P9WMR3 whole entry): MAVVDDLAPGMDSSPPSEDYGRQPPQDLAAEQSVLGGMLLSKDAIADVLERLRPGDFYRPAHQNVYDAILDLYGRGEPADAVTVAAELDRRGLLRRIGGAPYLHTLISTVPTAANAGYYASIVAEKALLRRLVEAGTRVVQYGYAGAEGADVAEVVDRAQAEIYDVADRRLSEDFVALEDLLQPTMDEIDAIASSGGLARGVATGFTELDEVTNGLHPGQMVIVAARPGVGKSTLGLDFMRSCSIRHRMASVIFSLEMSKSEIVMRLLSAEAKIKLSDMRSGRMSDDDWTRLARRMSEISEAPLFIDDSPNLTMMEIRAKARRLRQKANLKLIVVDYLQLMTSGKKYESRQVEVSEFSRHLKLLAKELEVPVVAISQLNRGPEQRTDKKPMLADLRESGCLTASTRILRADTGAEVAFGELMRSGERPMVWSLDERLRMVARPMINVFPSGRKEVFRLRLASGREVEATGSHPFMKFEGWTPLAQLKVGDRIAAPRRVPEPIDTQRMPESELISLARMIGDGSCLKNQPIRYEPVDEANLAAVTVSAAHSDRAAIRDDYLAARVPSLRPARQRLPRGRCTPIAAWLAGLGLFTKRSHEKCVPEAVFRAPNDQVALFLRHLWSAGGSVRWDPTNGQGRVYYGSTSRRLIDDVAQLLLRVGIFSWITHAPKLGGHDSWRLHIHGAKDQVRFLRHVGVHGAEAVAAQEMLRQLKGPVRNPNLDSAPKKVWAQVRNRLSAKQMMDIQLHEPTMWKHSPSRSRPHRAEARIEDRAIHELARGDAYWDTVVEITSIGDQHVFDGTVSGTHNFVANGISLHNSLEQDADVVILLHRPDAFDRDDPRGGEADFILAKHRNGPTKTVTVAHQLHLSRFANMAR

cells = assay type: functional
Protein RecA = target: T4, Protein RecA (Mycobacterium tuberculosis, UniProt P9WHJ3); experiment: Fluorescence Cell-Free Homogeneous Dose Retest to Identify Inhibitors of RecA-Intein Splicing Activity. [Related pubchem assays (depositor defined):AID2097, AID2223, AID489010, AID492950]; assay type: functional
T4 sequence (P9WHJ3 whole entry): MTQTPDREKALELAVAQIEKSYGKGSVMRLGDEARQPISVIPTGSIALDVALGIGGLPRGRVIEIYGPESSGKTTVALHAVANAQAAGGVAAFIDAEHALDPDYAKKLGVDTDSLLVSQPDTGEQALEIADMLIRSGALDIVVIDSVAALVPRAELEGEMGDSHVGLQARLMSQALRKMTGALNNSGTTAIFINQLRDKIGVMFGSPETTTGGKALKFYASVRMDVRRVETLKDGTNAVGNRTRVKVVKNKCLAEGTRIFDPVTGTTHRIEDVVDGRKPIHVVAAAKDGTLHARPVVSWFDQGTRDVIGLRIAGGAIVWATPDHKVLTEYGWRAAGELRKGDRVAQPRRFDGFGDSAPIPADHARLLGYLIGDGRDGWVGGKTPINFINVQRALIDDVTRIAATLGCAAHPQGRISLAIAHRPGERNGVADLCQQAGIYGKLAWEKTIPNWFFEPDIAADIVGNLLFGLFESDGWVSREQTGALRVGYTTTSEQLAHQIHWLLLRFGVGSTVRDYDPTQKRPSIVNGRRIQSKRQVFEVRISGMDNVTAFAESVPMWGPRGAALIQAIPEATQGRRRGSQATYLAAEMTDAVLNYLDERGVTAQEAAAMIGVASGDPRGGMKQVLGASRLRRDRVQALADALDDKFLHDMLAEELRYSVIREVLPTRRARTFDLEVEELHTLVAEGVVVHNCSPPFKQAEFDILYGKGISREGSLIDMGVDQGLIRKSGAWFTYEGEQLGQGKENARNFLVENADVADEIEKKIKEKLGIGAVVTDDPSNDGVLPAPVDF

Genome polyprotein = Genome polyprotein (dengue virus type 2, UniProt P29990); experiment: flavivirus cap methylation enzyme inhibition – biochemical, confirmation dose response, primary screen (AID 588689); assay type: functional
Sequence of Genome polyprotein (P29990 2492-3391 limits assumed): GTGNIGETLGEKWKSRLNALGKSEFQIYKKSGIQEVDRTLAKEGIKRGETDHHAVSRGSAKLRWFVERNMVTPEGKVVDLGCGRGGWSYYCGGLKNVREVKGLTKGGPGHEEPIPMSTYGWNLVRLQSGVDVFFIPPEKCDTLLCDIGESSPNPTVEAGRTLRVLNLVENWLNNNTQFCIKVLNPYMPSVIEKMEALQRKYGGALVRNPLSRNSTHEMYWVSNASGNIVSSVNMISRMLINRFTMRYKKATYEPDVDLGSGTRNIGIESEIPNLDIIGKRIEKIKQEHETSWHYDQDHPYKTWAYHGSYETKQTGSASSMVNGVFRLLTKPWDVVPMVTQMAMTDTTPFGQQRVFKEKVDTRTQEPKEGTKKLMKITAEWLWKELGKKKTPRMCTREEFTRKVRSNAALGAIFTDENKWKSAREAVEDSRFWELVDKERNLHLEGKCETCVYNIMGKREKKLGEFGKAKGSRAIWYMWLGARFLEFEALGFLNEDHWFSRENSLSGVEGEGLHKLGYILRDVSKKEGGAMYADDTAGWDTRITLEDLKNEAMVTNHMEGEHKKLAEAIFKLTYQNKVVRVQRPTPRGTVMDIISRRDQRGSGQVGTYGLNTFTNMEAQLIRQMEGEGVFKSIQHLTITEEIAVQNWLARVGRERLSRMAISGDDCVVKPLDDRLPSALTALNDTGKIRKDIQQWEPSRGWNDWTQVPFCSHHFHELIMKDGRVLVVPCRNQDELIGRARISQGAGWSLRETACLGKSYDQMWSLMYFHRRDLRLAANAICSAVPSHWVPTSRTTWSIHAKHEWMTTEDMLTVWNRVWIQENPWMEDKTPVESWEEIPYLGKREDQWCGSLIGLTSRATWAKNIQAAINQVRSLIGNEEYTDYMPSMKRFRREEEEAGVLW

Sequence of Induced myeloid leukemia cell differentiation protein Mcl-1 (Q07820 whole entry, the tested form may be a part): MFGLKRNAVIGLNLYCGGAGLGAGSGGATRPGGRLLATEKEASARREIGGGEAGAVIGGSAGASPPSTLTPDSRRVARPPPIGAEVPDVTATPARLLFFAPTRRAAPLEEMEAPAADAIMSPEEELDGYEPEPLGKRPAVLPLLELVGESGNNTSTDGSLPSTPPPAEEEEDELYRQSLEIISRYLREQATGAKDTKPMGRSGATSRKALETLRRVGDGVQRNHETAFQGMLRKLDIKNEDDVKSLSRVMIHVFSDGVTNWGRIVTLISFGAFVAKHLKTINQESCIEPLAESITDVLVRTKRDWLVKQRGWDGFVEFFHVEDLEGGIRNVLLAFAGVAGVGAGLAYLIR

C1=CC2c3ccccc3NC(c3ccncc3)C2C1 (stereo not given)
IC50 [1]: 2.42 µM (active) | EC50 [2]: > 300 µM (not active) | EC50 [3]: 56.6 µM (inconclusive)

COc1ccc(N/C=C/C(=O)c2sc(-c3ccccc3)nc2C)cc1
CC50 [4]: > 40 µM (active)

C[C@H]1CN([C@@H](C)CO)C(=O)c2cccc(NC(=O)c3ccc(-c4nccs4)cc3)c2O[C@@H]1CN(C)Cc1ccc(C(=O)Nc2ccccc2N)cc1
AC50 [5]: 2.92 µM (active)

CCc1ccc([C@H]2[C@@H]3C(=O)C[C@@H]4C(=O)N(Cc5ccccc5)C(=O)[C@@H]4[C@@H]3CN2S(=O)(=O)c2ccc(C)cc2)cc1
AC50 [6]: 1.17 µM (active) | AC50 [7]: 1.8 µM (active) | AC50 [8]: 11.3 µM (active) | AC50 [9]: 1.48 µM (active)

COCCCn1c(SCc2cccc(OC)c2)nc2cc(OC)c(OC)cc2c1=N
CC50 [4]: > 40 µM (active)

CCOC(=O)c1c(CSc2ccccc2)oc2cc(Br)c(O)c(CN(C)C)c12
AC50 [6]: 0.907 µM (active) | AC50 [7]: 1.38 µM (active) | AC50 [8]: 2.46 µM (active) | AC50 [9]: 1.58 µM (active)

Cc1noc(C)c1S(=O)(=O)N(C)C[C@H]1Oc2c(NC(=O)c3ccc(-c4nccs4)cc3)cccc2C(=O)N([C@@H](C)CO)C[C@H]1C
AC50 [5]: 5.82 µM (active)

C[C@H](CO)N1C[C@H](C)[C@H](CN(C)Cc2ccc(C(=O)Nc3ccccc3N)cc2)Oc2ccc(NC(=O)Nc3ccc(C(F)(F)F)cc3)cc2CC1=O
AC50 [5]: 1.86 µM (active)

CCOC(=O)[C@H]1[C@H]2COc3ccccc3[C@@H]2N2C(=O)c3c(C)cc(C)cc3NC(=O)[C@@]12C
AC50 [6]: 0.712 µM (active) | AC50 [7]: 1.04 µM (active) | AC50 [8]: 0.611 µM (active) | AC50 [9]: 1.7 µM (active)

C[C@H]1CN([C@@H](C)CO)C(=O)c2cccc(NC(=O)Nc3ccc(C(F)(F)F)cc3)c2O[C@H]1CN(C)Cc1ccc(C(F)(F)F)cc1
AC50 [5]: 3.22 µM (active)

COc1cc(-c2ccc3oc(-c4ccsc4)cc(=O)c3c2)cc(OC)c1OC
CC50 [4]: 14.3 µM (active) | IC50 (H9c2): > 79 µM (inactive)

CC(C)(C)c1nn(-c2ccccc2)c2nc(O)c(C=O)cc12
AC50 [10]: 6.32 µM (active) | AC50 [11]: 1.68 µM (active)

COc1ccccc1N1C(=O)C2ON(c3ccccc3)C(c3ccc(N(C)C)cc3)C2C1=O (stereo not given)
IC50 [1]: 9.03 µM (not active)

C[C@H]1CN([C@@H](C)CO)C(=O)Cc2cc(NS(=O)(=O)c3ccc(Cl)cc3)ccc2O[C@H]1CN(C)Cc1ccccc1
AC50 [5]: 4.6 µM (active)

N=C(Cc1ccc(Cl)c(Cl)c1)NOC(=O)c1ccc(Br)o1
AC50 [11]: 8.23 µM (active)

CC(C(c1ccc2c(c1)OCO2)c1c(N)n(C)c(=O)n(C)c1=O)[N+](=O)[O-] (stereo not given)
CC50 [4]: 36.3 µM (active)

CN(C(=O)c1cccc(Nc2ccc(-c3ccc4c(c3)OCCO4)nn2)c1)C1CCCCC1
CC50 [4]: 28.4 µM (active)

CCN(C[C@H]1N[C@@](C)(C(=O)OC)[C@H]2C(=O)N(Cc3ccccc3)C(=O)[C@@H]12)C(=O)Nc1ccc(C)cc1
AC50 [6]: 0.83 µM (active) | AC50 [7]: 1.61 µM (active) | AC50 [8]: 3.28 µM (active) | AC50 [9]: 0.959 µM (active)

CCC(C)(C)NC(=O)C(c1ccccc1F)N(Cc1ccco1)C(=O)c1csnn1 (stereo not given)
AC50 [6]: 5 µM (active) | AC50 [7]: 7.86 µM (active) | AC50 [8]: 36.2 µM (active) | AC50 [9]: 22.6 µM (active)

COc1cc(Br)cc(/C=N/NC(=O)c2ccccc2O)c1O
AC50 [5]: 1.49 µM (active)

COc1ccc(S(=O)(=O)Nc2ccc3c(c2)CC(=O)N([C@H](C)CO)C[C@@H](C)[C@@H](CN(C)S(=O)(=O)c2ccc(OC)cc2)O3)cc1
AC50 [5]: 3.98 µM (active)

C[C@H]1CN([C@@H](C)CO)C(=O)Cc2cc(NC(=O)Nc3cccc4ccccc34)ccc2O[C@@H]1CN(C)Cc1ccc(Oc2ccccc2)cc1
AC50 [5]: 3.12 µM (active)

O=C1NC(=O)C(=Cc2ccc(Oc3ccc([N+](=O)[O-])cc3)cc2)C(=O)N1
AC50 [12]: 29.5 µM (active) | IC50 (cells): 43 µM (active) | EC50 (Protein RecA): > 380 µM (inactive) | IC50 (Genome polyprotein): 34.5 µM (active)
